From patent US12624034B2, “Non-covalent modifiers of AKT1 and uses thereof” (Terremoto Biosciences, Inc., priority 2023, dated 2026)

How the values were obtained:
[1] = target: T1, AKT1 WT (Homo sapiens, UniProt P31749); experiment: Live cell AKT1 WT target engagement by NanoBRET competitive probe displacement in HEK293 cells; format: binding; conditions: NanoBRET competitive probe displacement, live HEK293 cells, 2 h at 37° C.; read-out: AKT1 WT IC50
T1 construct: expressed in transfected cells; host or cells: HEK293
T1 sequence (P31749 whole entry): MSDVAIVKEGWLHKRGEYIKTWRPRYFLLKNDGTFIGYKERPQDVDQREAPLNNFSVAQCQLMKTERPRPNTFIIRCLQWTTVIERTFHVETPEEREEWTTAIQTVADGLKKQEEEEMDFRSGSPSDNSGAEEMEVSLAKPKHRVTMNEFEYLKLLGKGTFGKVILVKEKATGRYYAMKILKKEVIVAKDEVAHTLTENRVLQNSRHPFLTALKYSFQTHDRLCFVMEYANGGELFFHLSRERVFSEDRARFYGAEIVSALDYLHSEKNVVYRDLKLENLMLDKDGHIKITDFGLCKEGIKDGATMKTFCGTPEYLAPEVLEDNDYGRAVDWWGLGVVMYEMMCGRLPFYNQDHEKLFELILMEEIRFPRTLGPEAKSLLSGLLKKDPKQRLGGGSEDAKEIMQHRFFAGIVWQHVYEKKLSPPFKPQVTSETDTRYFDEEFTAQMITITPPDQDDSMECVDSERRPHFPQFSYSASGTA

[2] = target: T2, AKT2 (Homo sapiens, UniProt P31751); experiment: Live cell AKT2 target engagement by NanoBRET competitive probe displacement in HEK293 cells; format: binding; conditions: NanoBRET competitive probe displacement, live HEK293 cells, 2 h at 37° C.; read-out: AKT2 IC50
T2 construct: expressed in transfected cells; host or cells: HEK293
T2 sequence (P31751 whole entry): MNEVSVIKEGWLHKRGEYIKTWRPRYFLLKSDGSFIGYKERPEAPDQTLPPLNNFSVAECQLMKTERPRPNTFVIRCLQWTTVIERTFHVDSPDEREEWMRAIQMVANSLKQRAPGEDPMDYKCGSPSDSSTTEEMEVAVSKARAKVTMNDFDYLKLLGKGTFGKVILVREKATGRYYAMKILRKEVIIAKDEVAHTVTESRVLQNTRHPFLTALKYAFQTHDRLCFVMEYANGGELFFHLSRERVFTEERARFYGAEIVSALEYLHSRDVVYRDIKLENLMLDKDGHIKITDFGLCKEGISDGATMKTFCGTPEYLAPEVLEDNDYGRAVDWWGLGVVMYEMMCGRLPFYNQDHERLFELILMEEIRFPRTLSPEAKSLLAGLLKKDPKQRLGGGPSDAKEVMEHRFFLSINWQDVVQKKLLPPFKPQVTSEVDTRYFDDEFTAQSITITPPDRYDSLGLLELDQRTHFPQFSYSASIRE

Molecule `Nc1ncccc1-c1nc2ccc(-n3cccn3)nc2n1-c1ccc2c(c1)CC[C@@H]2NC1CCN(C(=O)C2CCC2)CC1` [Compound 422] has an IC50 [1] of 67.9 nM and an IC50 [2] of 2080 nM.

Molecule `Nc1ncccc1-c1nc2ccc(-n3cccn3)nc2n1-c1ccc2c(c1)CC[C@@H]2NC1CCN(C(=O)C2COC2)CC1` [Compound 423] has an IC50 [1] of 188 nM and an IC50 [2] of 2620 nM.

`Nc1ncccc1-c1nc2ccc(-n3cccn3)nc2n1-c1ccc2c(c1)CC[C@@H]2NC1CCN(C(=O)[C@@H]2CCO2)CC1` [Compound 424] gave an IC50 [1] of 122 nM and an IC50 [2] of 5380 nM.

`Nc1ncccc1-c1nc2ccc(-n3cccn3)nc2n1-c1ccc2c(c1)CC[C@@H]2NC1CCN(C(=O)[C@H]2CCO2)CC1` [Compound 425] was tested, and the IC50 [1] was 109 nM and the IC50 [2] was 3090 nM.

With `Cn1nc(C(=O)N[C@H]2CCc3cc(-n4c(-c5cccnc5N)nc5ccc(-n6cccn6)nc54)ccc32)cc1F` [Compound 428] the IC50 [1] was 58.9 nM and the IC50 [2] was 1730 nM.

`COc1cc(C(=O)N[C@H]2CCc3cc(-n4c(-c5cccnc5N)nc5ccc(-n6cccn6)nc54)ccc32)sn1` [Compound 429] gave an IC50 [1] of 5.64 nM and an IC50 [2] of 57 nM.

Work on `Cc1ccc(C(=O)N[C@H]2CCc3cc(-n4c(-c5cccnc5N)nc5ccc(-n6cnc(C(F)F)n6)nc54)ccc32)cn1` [Compound 430] yielded an IC50 [1] of 83.5 nM and an IC50 [2] of 2490 nM.

Work on `Cc1ccc(C(=O)N[C@H]2CCc3cc(-n4c(-c5ccccc5)nc5ccc(-c6ccn(C7CC7)n6)nc54)ccc32)cn1` [Compound 431, (S)—N-(5-(5-(1-cyclopropyl-1H-pyrazol-3-yl)-2-phenyl-3H-imidazo[4,5-b]pyridin-3-yl)-2,3-dihydro-1H-inden-1-yl)-6-methylnicotinamide] yielded an IC50 [1] of 16.7 nM and an IC50 [2] of 900 nM.

Work on `Nc1ncccc1-c1nc2ccc(-n3cccn3)nc2n1-c1ccc2c(c1)CC[C@@H]2NC1CCN(C(=O)C2CC2(F)F)CC1` (some centres unmarked) [Compound 433] yielded an IC50 [1] of 190 nM and an IC50 [2] of 3530 nM.

For `Nc1ncccc1-c1nc2ccc(-c3ccn(C(F)F)n3)nc2n1-c1ccc2c(c1)CC[C@@H]2NC1CCN(C(=O)C2CC2)CC1` [Compound 434], the IC50 [1] was 57.7 nM and the IC50 [2] was 1300 nM.

Molecule `Cc1ccc(C(=O)N[C@H]2CCc3cc(-n4c(-c5cccnc5N)nc5ccc(C#CC6CC6)nc54)ccc32)cn1` [Compound 435] has an IC50 [1] of 19.6 nM and an IC50 [2] of 1390 nM.

In the case of `Nc1ncccc1-c1nc2ccc(-n3nccn3)nc2n1-c1ccc2c(c1)CC[C@@H]2NC(=O)c1cnns1` [Compound 436], the IC50 [1] is reported as 40 nM and the IC50 [2] is reported as 4660 nM.

`CN(CC1CC1)[C@H]1CCc2cc(-n3c(-c4cccnc4N)nc4ccc(-n5cccn5)nc43)ccc21` [Compound 437] was tested, and the IC50 [1] was 80.7 nM and the IC50 [2] was 1570 nM.

Work on `Cc1nnsc1C(=O)N[C@H]1CCc2cc(-n3c(-c4cccnc4N)nc4ccc(-n5cccn5)nc43)ccc21` [Compound 438] yielded an IC50 [1] of 25.3 nM and an IC50 [2] of 795 nM.

Work on `Nc1ncccc1-c1nc2ccc(-n3ccc(C4CC4)n3)nc2n1-c1ccc2c(c1)CC[C@@H]2NC1CCN(C(=O)C2CC2)CC1` [Compound 442] yielded an IC50 [1] of 72.6 nM and an IC50 [2] of 1600 nM.

`Nc1ncccc1-c1nc2ccc(-n3cccn3)nc2n1-c1ccc2c(c1)CC[C@@H]2NC1CCN(C(=O)C2CC2)CC1F` (some centres unmarked) [Compound 443] gave an IC50 [1] of 23.2 nM and an IC50 [2] of 940 nM.

Work on `Nc1ncccc1-c1nc2ccc(-n3cccn3)nc2n1-c1ccc2c(c1)CC[C@@H]2NC1CCN(C(=O)C2CC2)CC1F` (some centres unmarked) [Compound 444] yielded an IC50 [1] of 23.5 nM and an IC50 [2] of 499 nM.

`Nc1ncccc1-c1nc2ccc(-n3cccn3)nc2n1-c1ccc2c(c1)CC[C@@H]2NC1CCN(C(=O)C2CC2)CC1F` (some centres unmarked) [Compound 445] gave an IC50 [1] of 20.2 nM and an IC50 [2] of 980 nM.

With `Nc1ncccc1-c1nc2ccc(-n3cccn3)nc2n1-c1ccc2c(c1)CC[C@@H]2NC1CCN(C(=O)C2CC2)CC1F` (some centres unmarked) [Compound 446] the IC50 [1] was 31.9 nM and the IC50 [2] was 1330 nM.

For `Nc1ncccc1-c1nc2ccc(-n3cccn3)nc2n1-c1ccc2c(c1)CC[C@@H]2NC1CC2(CCN(c3ccccn3)C2)C1` (stereo partly drawn) [Compound 447, N-[(1S)-5-[2-(2-aminopyridin-3-yl)-5-(pyrazol-1-yl)imidazo[4,5-b]pyridin-3-yl]-2,3-dihydro-1H-inden-1-yl]-6-(pyridin-2-yl)-6-azaspiro[3.4]octan-2-amine], the IC50 [1] was 78.5 nM and the IC50 [2] was 1490 nM.

In the case of `Nc1ncccc1-c1nc2ccc(-n3cccn3)nc2n1-c1ccc2c(c1)CC[C@@H]2NC1CC2(C1)CN(c1ccccn1)C2` [Compound 448], the IC50 [1] is reported as 47.8 nM and the IC50 [2] is reported as 1760 nM.

`Nc1ncccc1-c1nc2ccc(-n3cccn3)nc2n1-c1ccc2c(c1)CC[C@@H]2NC1CC2(CCN(c3ccccn3)CC2)C1` [Compound 449] showed an IC50 [1] of 79.7 nM and an IC50 [2] of 1200 nM.

`Nc1ncccc1-c1nc2ccc(-n3cccn3)nc2n1-c1ccc2c(c1)CC[C@@H]2NC1CCC2(CC1)CN(c1ccccn1)C2` [Compound 450] showed an IC50 [1] of 198 nM and an IC50 [2] of 4470 nM.

`Cc1cnsc1C(=O)N[C@H]1CCc2cc(-n3c(-c4cccnc4N)nc4ccc(-n5cccn5)nc43)ccc21` [Compound 451] gave an IC50 [1] of 8.14 nM and an IC50 [2] of 198 nM.

`Nc1ncccc1-c1nc2ccc(-n3cccn3)nc2n1-c1ccc2c(c1)CC[C@@H]2NC(=O)c1cc(C(F)F)ns1` [Compound 452] was tested, and the IC50 [1] was 6.63 nM and the IC50 [2] was 131 nM.

Molecule `Nc1ncccc1-c1nc2ccc(C#C[C@H]3CCO3)nc2n1-c1ccc2c(c1)CC[C@@H]2NC(=O)c1ccc(C(F)F)nc1` [Compound 453] has an IC50 [1] of 28 nM and an IC50 [2] of 3770 nM.

Work on `Nc1ncccc1-c1nc2ccc(C#C[C@@H]3CCO3)nc2n1-c1ccc2c(c1)CC[C@@H]2NC(=O)c1ccc(C(F)F)nc1` [Compound 454] yielded an IC50 [1] of 37.5 nM and an IC50 [2] greater than 10000 nM.

With `Cc1ccc(C(=O)N[C@H]2CCc3cc(-n4c(-c5cccnc5N)nc5ccc(-c6ncn(C)n6)nc54)ccc32)cn1` [Compound 455, (S)—N-(5-(2-(2-aminopyridin-3-yl)-5-(1-methyl-1H-1,2,4-triazol-3-yl)-3H-imidazo[4,5-b]pyridin-3-yl)-2,3-dihydro-1H-inden-1-yl)-6-methylnicotinamide] the IC50 [1] was 195 nM and the IC50 [2] was 3020 nM.

Molecule `COc1ncn(-c2ccc3nc(-c4cccnc4N)n(-c4ccc5c(c4)CC[C@@H]5NC(=O)c4ccc(C)nc4)c3n2)n1` [Compound 456, (S)—N-(5-(2-(2-aminopyridin-3-yl)-5-(3-methoxy-1H-1,2,4-triazol-1-yl)-3H-imidazo[4,5-b]pyridin-3-yl)-2,3-dihydro-1H-inden-1-yl)-6-methylnicotinamide] has an IC50 [1] of 52.3 nM and an IC50 [2] of 715 nM.

With `COCCN(C)[C@H]1CCc2cc(-n3c(-c4cccnc4N)nc4ccc(-n5cccn5)nc43)ccc21` [Compound 457] the IC50 [1] was 235 nM and the IC50 [2] was 6740 nM.

Work on `CN(CCC1CC1)[C@H]1CCc2cc(-n3c(-c4cccnc4N)nc4ccc(-n5cccn5)nc43)ccc21` [Compound 458] yielded an IC50 [1] of 93.4 nM and an IC50 [2] of 2800 nM.

`Nc1ncccc1-c1nc2ccc(C#CC3CC3)nc2n1-c1ccc2c(c1)CC[C@@H]2NC(=O)c1ccc(F)c(F)c1` [Compound 459] showed an IC50 [1] of 26.6 nM and an IC50 [2] of 782 nM.

In the case of `Nc1ncccc1-c1nc2ccc(C#CC3CCCC3)nc2n1-c1ccc2c(c1)CC[C@@H]2NC(=O)c1ccc(C(F)F)nc1` [Compound 460], the IC50 [1] is reported as 33.6 nM and the IC50 [2] is reported as 6180 nM.

Work on `Nc1ncccc1-c1nc2ccc(-n3cccn3)nc2n1-c1ccc2c(c1)CC[C@@H]2NC1CCN(C(=O)C2CC2)C1` (some centres unmarked) [Compound 461] yielded an IC50 [1] of 109 nM and an IC50 [2] of 3030 nM.

With `Nc1ncccc1-c1nc2ccc(-n3cccn3)nc2n1-c1ccc2c(c1)CC[C@@H]2NC1CCN(C(=O)C2CC2)C1` (some centres unmarked) [Compound 462] the IC50 [1] was 225 nM and the IC50 [2] was 2370 nM.

`Nc1ncccc1-c1nc2ccc(-n3cccn3)nc2n1-c1ccc2c(c1)CC[C@@H]2NC1CCc2cnccc2C1` (some centres unmarked) [Compound 464] gave an IC50 [1] of 19.2 nM and an IC50 [2] of 167 nM.

With `Nc1ncccc1-c1nc2ccc(-n3cccn3)nc2n1-c1ccc2c(c1)CC[C@@H]2NC1CC2(CCCN2c2ccccn2)C1` (some centres unmarked) [Compound 465] the IC50 [1] was greater than 1000 nM and the IC50 [2] was greater than 10000 nM.

In the case of `Cc1ccc(C(=O)N[C@H]2CCc3cc(-n4c(-c5cccnc5N)nc5cc(F)c(-n6nccn6)nc54)ccc32)cn1` [Compound 466], the IC50 [1] is reported as 25.9 nM and the IC50 [2] is reported as 1570 nM.

`Nc1ncccc1-c1nc2ccc(-n3cccn3)nc2n1-c1ccc2c(c1)CC[C@@H]2NC1CC2(CCCN(c3ccccn3)C2)C1` (some centres unmarked) [Compound 467] was tested, and the IC50 [1] was 358 nM and the IC50 [2] was 3560 nM.

Work on `Nc1ncccc1-c1nc2ccc(-n3cccn3)nc2n1-c1ccc2c(c1)CC[C@@H]2NC1CC2(CCCN(c3ccccn3)C2)C1` (some centres unmarked) [Compound 468] yielded an IC50 [1] of 74.7 nM and an IC50 [2] of 1960 nM.

With `Nc1ncccc1-c1nc2ccc(-n3cccn3)nc2n1-c1ccc2c(c1)CC[C@@H]2N[C@@H]1CCN(c2ccccc2)C1` [Compound 469] the IC50 [1] was 93.4 nM and the IC50 [2] was 1130 nM.

`Nc1ncccc1-c1nc2ccc(-n3cccn3)nc2n1-c1ccc2c(c1)CC[C@@H]2NC1CCN(c2ccccc2)C1` (some centres unmarked) [Compound 470] gave an IC50 [1] of 68.2 nM and an IC50 [2] of 777 nM.

With `Nc1ncccc1-c1nc2ccc(-n3cccn3)nc2n1-c1ccc2c(c1)CC[C@@H]2NC1CCN(c2cccnc2)C1` (some centres unmarked) [Compound 471] the IC50 [1] was 39 nM and the IC50 [2] was 1040 nM.

In the case of `Nc1ncccc1-c1nc2ccc(-n3cccn3)nc2n1-c1ccc2c(c1)CC[C@@H]2NC1CCN(c2cccnc2)C1` (some centres unmarked) [Compound 472], the IC50 [1] is reported as 18 nM and the IC50 [2] is reported as 404 nM.

`Nc1ncccc1-c1nc2ccc(-n3cccn3)nc2n1-c1ccc2c(c1)CC[C@@H]2NC1CCc2cnccc21` (some centres unmarked) [Compound 473] gave an IC50 [1] of 19 nM and an IC50 [2] of 28 nM.

`Nc1ncccc1-c1nc2ccc(-n3cccn3)nc2n1-c1ccc2c(c1)CC[C@@H]2NC1CCN(C(=O)C(F)F)CC1` [Compound 475] was tested, and the IC50 [1] was 130 nM and the IC50 [2] was 2780 nM.

Work on `Nc1ncccc1-c1nc2ccc(-n3cccn3)nc2n1-c1ccc2c(c1)CC[C@@H]2NC1CCN(C(=O)[C@H]2CC2(F)F)CC1` [Compound 476] yielded an IC50 [1] of 209 nM and an IC50 [2] greater than 10000 nM.

For `Nc1ncccc1-c1nc2ccc(-n3cccn3)nc2n1-c1ccc2c(c1)CC[C@@H]2NC1CCN(C(=O)[C@@H]2C[C@@H]2F)CC1` [Compound 477], the IC50 [1] was 170 nM and the IC50 [2] was 4360 nM.

For `Nc1ncccc1-c1nc2ccc(-n3cccn3)nc2n1-c1ccc2c(c1)CC[C@@H]2NC1CCN(C(=O)[C@H]2C[C@H]2F)CC1` [Compound 478], the IC50 [1] was 126 nM and the IC50 [2] was 3170 nM.
